# In US11458123B2 (Arvinas, Inc., priority 2016, dated 2022):
# Tested on: tau protein
# Experiment: Tau protein in vitro degradation assay (Western blot, Tau-13 antibody)
# Format: cell-based, human
# Details: SK-N-SH cells; 72 hours of incubation; tested at 300 nM, 100 nM, 33 nM and 11 nM; Western blot, Tau-13 antibody
# Summary of the method: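 Tau degradation read by Tau-13 Western blot (detects all human tau forms) of SDS-PAGE-resolved lysates from SK-N-SH cells. Cells were plated at least 18 h before 72 h exposure to PROTACs at either 1000/300/100 nM or 300/100/33/11 nM.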
SMILES,Degradation activity* (highest amount of degradation observed at any dosage; tau protein remaining),Degradation activity (tau protein remaining; highest amount of degradation observed at any dosage)
"Cn1c2ccncc2c2ccc(-c3ccc(OCCCCOCCCCN4CC5(CC(Oc6ccc7c(c6)C(=O)N(C6CCC(=O)NC6=O)C7=O)C5)C4)nc3)cc21 (stereo not shown) [Compound 116, 2-(2,6-dioxopiperidin-3-yl)-5-((2-(4-(4-((5-(5-methyl-5H-pyrido[4,3-b]indol-7-yl)pyridin-2-yl)oxy)butoxy)butyl)-2-azaspiro[3.3]heptan-6-yl)oxy)isoindoline-1,3-dione]",C (>80% tau protein remaining after 72 hours of incubation with the test compound),–
"Cn1c2ccncc2c2ccc(-c3ccc(O[C@H]4C[C@H](OCCOCCOC5CC6(C5)CN(c5ccc7c(c5)C(=O)N(C5CCC(=O)NC5=O)C7=O)C6)C4)nc3)cc21 (stereo partly shown) [Compound 213, 2-(2,6-dioxopiperidin-3-yl)-5-(6-(2-(2-((1r,3r)-3-((5-(5-methyl-5H-pyrido[4,3-b]indol-7-yl)pyridin-2-yl)oxy)cyclobutoxy)ethoxy)ethoxy)-2-azaspiro[3.3]heptan-2-yl)isoindoline-1,3-dione]",–,C (>80% tau protein remaining after 72 hours of incubation with the test compound)
"Cn1c2ccncc2c2ccc(-c3ccc(O[C@H]4C[C@H](OCCCCCOC(CC5CN(c6ccc7c(c6)C(=O)N(C6CCC(=O)NC6=O)C7=O)C5)C(F)(F)F)C4)nc3)cc21 (stereo partly shown) [Compound 153, 2-(2,6-dioxopiperidin-3-yl)-5-(3-(3,3,3-trifluoro-2-((5-((1r,3r)-3-((5-(5-methyl-5H-pyrido[4,3-b]indol-7-yl)pyridin-2-yl)oxy)cyclobutoxy)pentyl)oxy)propyl)azetidin-1-yl)isoindoline-1,3-dione]",B (≤80% and >50% tau protein remaining after 72 hours of incubation with the test compound),–
"Cc1cc(-c2ccc3c4cnccc4n(C)c3c2)cnc1OCCOCCOCCOCCOCCOc1ccc2c(c1)C(=O)N(C1CCC(=O)NC1=O)C2=O (stereo not shown) [Compound 140, 2-(2,6-dioxopiperidin-3-yl)-5-((14-((3-methyl-5-(5-methyl-5H-pyrido[4,3-b]indol-7-yl)pyridin-2-yl)oxy)-3,6,9,12-tetraoxatetradecyl)oxy)isoindoline-1,3-dione]",A (≤50% tau protein remaining after 72 hours of incubation with the test compound),–
"Cn1c2ccncc2c2ccc(-c3ccc(OC4CC5(C4)CN(CCOCCCOC4CN(c6ccc7c(c6)C(=O)N(C6CCC(=O)NC6=O)C7=O)C4)C5)nc3)cc21 (stereo not shown) [Compound 211, 2-(2,6-dioxopiperidin-3-yl)-5-(3-(3-(2-(6-((5-(5-methyl-5H-pyrido[4,3-b]indol-7-yl)pyridin-2-yl)oxy)-2-azaspiro[3.3]heptan-2-yl)ethoxy)propoxy)azetidin-1-yl)isoindoline-1,3-dione]",–,C (>80% tau protein remaining after 72 hours of incubation with the test compound)
"Cn1c2ccncc2c2ccc(-c3ccc(O[C@H]4C[C@@H](C(=O)N5CC6(CC(OCCCCOc7ccc8c(c7)C(=O)N(C7CCC(=O)NC7=O)C8=O)C6)C5)C4)nc3)cc21 (stereo partly shown) [Compound 136, 2-(2,6-dioxopiperidin-3-yl)-5-(4-((2-((1 s,3 s)-3-((5-(5-methyl-5H-pyrido[4,3-b]indol-7-yl)pyridin-2-yl)oxy)cyclobutane-1-carbonyl)-2-azaspiro[3.3]heptan-6-yl)oxy)butoxy)isoindoline-1,3-dione]",C (>80% tau protein remaining after 72 hours of incubation with the test compound),–
"O=C1CCC(N2C(=O)c3ccc(OC4CN(CCCOCCCO[C@H]5C[C@H](Oc6ncc(-c7ccc8c(c7)[nH]c7ccncc78)cc6C(F)(F)F)C5)C4)cc3C2=O)C(=O)N1 (stereo partly shown) [Compound 101, 5-((1-(3-(3-((1r,3r)-3-((5-(5H-pyrido[4,3-b]indol-7-yl)-3-(trifluoromethyl)pyridin-2-yl)oxy)cyclobutoxy)propoxy)propyl)azetidin-3-yl)oxy)-2-(2,6-dioxopiperidin-3-yl)isoindoline-1,3-dione]",A (≤50% tau protein remaining after 72 hours of incubation with the test compound),–
"Cn1c2ccncc2c2ccc(-c3cnc(O[C@H]4C[C@H](OCCCOCCCN5CC(Oc6ccc7c(c6)C(=O)N(C6CCC(=O)NC6=O)C7=O)C5)C4)c(C(F)(F)F)c3)cc21 (stereo partly shown) [Compound 105, 2-(2,6-dioxopiperidin-3-yl)-5-((1-(3-(3-((1r,3r)-3-((5-(5-methyl-5H-pyrido[4,3-b]indol-7-yl)-3-(trifluoromethyl)pyridin-2-yl)oxy)cyclobutoxy)propoxy)propyl)azetidin-3-yl)oxy)isoindoline-1,3-dione]",A (≤50% tau protein remaining after 72 hours of incubation with the test compound),–
"Cc1ncsc1-c1ccc(CNC(=O)[C@@H]2C[C@@H](O)CN2C(=O)[C@H](C(C)C)N2Cc3ccccc3C2=O)c(OCCOc2ccc(-c3ccc4c(c3)[nH]c3ccncc34)cn2)c1 [Compound 185, (2S,4R)—N-(2-(2-((5-(5H-pyrido[4,3-b]indol-7-yl)pyridin-2-yl)oxy)ethoxy)-4-(4-methylthiazol-5-yl)benzyl)-4-hydroxy-1-((S)-3-methyl-2-(1-oxoisoindolin-2-yl)butanoyl)pyrrolidine-2-carboxamide]",–,C (>80% tau protein remaining after 72 hours of incubation with the test compound)
"O=C1CCC(N2C(=O)c3ccc(OCC#Cc4ccc(O[C@H]5C[C@H](Oc6ccc(-c7cc8[nH]c9ccncc9c8c(F)c7F)cn6)C5)cn4)cc3C2=O)C(=O)N1 (stereo partly shown) [Compound 204, 5-((3-(5-((1r,3r)-3-((5-(8,9-difluoro-5H-pyrido[4,3-b]indol-7-yl)pyridin-2-yl)oxy)cyclobutoxy)pyridin-2-yl)prop-2-yn-1-yl)oxy)-2-(2,6-dioxopiperidin-3-yl)isoindoline-1,3-dione]",–,C (>80% tau protein remaining after 72 hours of incubation with the test compound)
"Cn1c2ccncc2c2ccc(-c3ccc(O[C@H]4C[C@H](OCCCC(F)(F)CN5CC6(C5)CN(c5ccc7c(c5)C(=O)N(C5CCC(=O)NC5=O)C7=O)C6)C4)nc3)cc21 (stereo partly shown) [Compound 150, 5-(6-(2,2-difluoro-5-((1r,3r)-3-((5-(5-methyl-5H-pyrido[4,3-b]indol-7-yl)pyridin-2-yl)oxy)cyclobutoxy)pentyl)-2,6-diazaspiro[3.3]heptan-2-yl)-2-(2,6-dioxopiperidin-3-yl)isoindoline-1,3-dione]",B (≤80% and >50% tau protein remaining after 72 hours of incubation with the test compound),–
"Cn1c2ccncc2c2ccc(-c3ccc(O[C@H]4C[C@H](OC5CCN(c6cccc(CCCOc7ccc8c(c7)C(=O)N(C7CCC(=O)NC7=O)C8=O)c6)CC5)C4)nc3)cc21 (stereo partly shown) [Compound 205, 2-(2,6-dioxopiperidin-3-yl)-5-(3-(3-(4-((1r,3r)-3-((5-(5-methyl-5H-pyrido[4,3-b]indol-7-yl)pyridin-2-yl)oxy)cyclobutoxy)piperidin-1-yl)phenyl)propoxy)isoindoline-1,3-dione]",–,A (≤50% tau protein remaining after 72 hours of incubation with the test compound)

# Same assay, conditions: SK-N-SH cells; 72 hours of incubation; tested at 1000 nM, 300 nM and 100 nM
row,SMILES,"Activity* (highest amount of degradation observed at any dosage, as tau protein remaining)"
1,"CN(C)c1ccc(-c2ccc3cc(OCCCOCCOCCOCCOCCNc4cccc5c4C(=O)N(C4CCC(=O)NC4=O)C5=O)ccc3n2)cc1 (stereo not shown) [Compound 40, 4-(15-(2-(4-(dimethylamino)phenyl)quinolin-6-yloxy)-3,6,9,12-tetraoxapentadecylamino)-2-(2,6-dioxopiperidin-3-yl)isoindoline-1,3-dione]",C (>80% tau protein remaining after 72 hours of incubation with the test compound)
2,"Cc1ncoc1-c1ccc(CNC(=O)[C@@H]2C[C@@H](O)CN2C(=O)[C@@H](NC(=O)COCCOCCOCCOCC(=O)N2CCN(c3ccn4c(n3)nc3ccccc34)CC2)C(C)(C)C)cc1 [Compound 14, (2S,4R)-1-((S)-17-(4-(benzo[4,5]imidazo[1,2-a]pyrimidin-2-yl)piperazin-1-yl)-2-(tert-butyl)-4,17-dioxo-6,9,12,15-tetraoxa-3-azaheptadecanoyl)-4-hydroxy-N-(4-(4-methyloxazol-5-yl)benzyl)pyrrolidine-2-carboxamide]",C (>80% tau protein remaining after 72 hours of incubation with the test compound)
3,"O=C1CCC(N2C(=O)c3cccc(NCCOCCOCCOc4ccc(-c5ccc6c(c5)[nH]c5ccncc56)cn4)c3C2=O)C(=O)N1 (stereo not shown) [Compound 3, 4-(2-(2-(2-(5-(5H-pyrido[4,3-b]indol-7-yl)pyridin-2-yloxy)ethoxy)ethoxy)ethylamino)-2-(2,6-dioxopiperidin-3-yl)isoindoline-1,3-dione]",A (≤50% tau protein remaining after 72 hours of incubation with the test compound)
4,"Cc1ncsc1-c1ccc(CNC(=O)[C@@H]2C[C@@H](O)CN2C(=O)[C@@H](NC(=O)COCCOCCOCCOc2ccc(-c3ccc4c(c3)[nH]c3ccncc34)cn2)C(C)(C)C)cc1 [Compound 1, (2S,4R)-1-((S)-14-(5-(5H-pyrido[4,3-b]indol-7-yl)pyridin-2-yloxy)-2-tert-butyl-4-oxo-6,9,12-trioxa-3-azatetradecane)-4-hydroxy-N-(4-(4-methylthiazol-5-yl)benzyl)pyrrolidine-2-carboxamide]",C (>80% tau protein remaining after 72 hours of incubation with the test compound)
